This is an account of results in ChEMBL document CHEMBL2384927, “Development of Unsymmetrical Dyads As Potent Noncarbohydrate-Based Inhibitors against Human β-N-Acetyl-d-hexosaminidase” (ACS Med Chem Lett, 2013).

Calls of active or inactive are those of the source. The rule behind the calls is not given here. Some results are limits rather than exact numbers.

The first assay has as its target T1, Beta-N-acetyl-D-hexosaminidase-A/B (Homo sapiens) (UniProt P07686+P06865). As to the kind of experiment: Inhibition of human beta-N-acetyl-D-hexosaminidase-A/B using 4-Methylumbelliferyl N-acetyl-beta-D-glucosaminide as substrate at 50 uM incubated for 10 mins prior to substrate addition by spectrofluorometric analysis relative to control. It is filed as protein assay.
Regarding `O=C1c2cccc3cccc(c23)C(=O)N1CCNCCOc1ccc(Cl)cc1`, the inhibition was below 50%. The same measure, in the same setting: with `O=C1c2cccc3cccc(c23)C(=O)N1CCNCCOc1ccc([N+](=O)[O-])cc1` the figure was below 50%; with `COc1ccc2c3c(cccc13)C(=O)N(CCN)C2=O`, below 50%; with `COc1ccc(SCCCNCCN2C(=O)c3cccc4cccc(c34)C2=O)cc1`, below 50%.

In turn, `NCCN1C(=O)c2ccccc2C1=O` registered an inhibition below 50%. The same measure, in the same setting: with `NCCN1C(=O)c2cccc3c(Br)ccc(c23)C1=O` the figure was below 50%; with `NCCCCCCN1C(=O)c2cccc3cccc(c23)C1=O`, below 50%; with `CN(C)c1ccc2c3c(cccc13)C(=O)N(CCN)C2=O`, below 50%. Still for that read-out and setting: the result for `NCCN1C(=O)c2cccc3cccc1c23` reads below 50%; that for `COc1cccc(NCCNCCN2C(=O)c3cccc4cccc(c34)C2=O)c1`, below 50%.

Compound `O=C1c2cccc3cccc(c23)C(=O)N1CCNCCOc1ccc(OC(F)(F)F)cc1` yielded an inhibition below 50%.

The target in another assay is T2, Beta-N-acetyl-D-hexosaminidase-A/B (Homo sapiens, UniProt P07686+P06865).
T2 sequence (P07686 whole entry): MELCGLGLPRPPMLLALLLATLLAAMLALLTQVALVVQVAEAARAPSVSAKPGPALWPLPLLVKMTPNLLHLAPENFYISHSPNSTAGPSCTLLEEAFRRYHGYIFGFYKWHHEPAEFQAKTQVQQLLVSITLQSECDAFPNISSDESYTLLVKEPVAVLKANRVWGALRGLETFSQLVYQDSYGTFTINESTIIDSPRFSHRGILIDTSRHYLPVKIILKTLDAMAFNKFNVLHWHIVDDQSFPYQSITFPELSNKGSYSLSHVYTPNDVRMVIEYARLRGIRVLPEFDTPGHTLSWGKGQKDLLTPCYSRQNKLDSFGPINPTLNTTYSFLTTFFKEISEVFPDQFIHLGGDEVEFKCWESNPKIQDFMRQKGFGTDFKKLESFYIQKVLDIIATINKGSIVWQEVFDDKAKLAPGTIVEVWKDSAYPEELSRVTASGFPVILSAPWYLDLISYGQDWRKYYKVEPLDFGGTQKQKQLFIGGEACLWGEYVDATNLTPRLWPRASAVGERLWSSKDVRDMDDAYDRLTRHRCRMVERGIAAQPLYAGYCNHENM
T2 sequence (P06865 whole entry): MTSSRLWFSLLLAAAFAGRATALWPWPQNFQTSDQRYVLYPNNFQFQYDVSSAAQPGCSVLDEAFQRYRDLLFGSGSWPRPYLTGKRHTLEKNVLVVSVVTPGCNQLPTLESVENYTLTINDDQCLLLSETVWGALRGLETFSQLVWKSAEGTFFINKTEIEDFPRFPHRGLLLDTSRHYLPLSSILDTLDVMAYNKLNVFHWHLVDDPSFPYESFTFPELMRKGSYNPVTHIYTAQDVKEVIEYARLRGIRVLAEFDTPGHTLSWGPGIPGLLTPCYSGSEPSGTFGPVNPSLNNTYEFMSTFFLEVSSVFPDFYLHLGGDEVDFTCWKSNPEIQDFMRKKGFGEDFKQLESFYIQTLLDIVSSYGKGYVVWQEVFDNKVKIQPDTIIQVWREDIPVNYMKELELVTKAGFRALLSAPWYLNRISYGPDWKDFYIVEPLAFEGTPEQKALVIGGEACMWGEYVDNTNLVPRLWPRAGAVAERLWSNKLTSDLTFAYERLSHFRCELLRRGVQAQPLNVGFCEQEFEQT
Kind of assay: Inhibition of human beta-N-acetyl-D-hexosaminidase-A/B using 4-Methylumbelliferyl N-acetyl-beta-D-glucosaminide as substrate incubated for 10 mins prior to substrate addition by spectrofluorometric analysis. It is filed as protein assay.
`O=C1c2cccc3cccc(c23)C(=O)N1CCNCCN1C(=O)c2cccc3cccc(c23)C1=O` gave a Ki of 3.22 µM. Still for that read-out and setting: the result for `COc1ccc(CNCCN2C(=O)c3cccc4cccc(c34)C2=O)cc1` reads 0.63 µM. The same measure, in the same setting: the result for `COc1ccc(SCCNCCN2C(=O)c3cccc4cccc(c34)C2=O)cc1` reads 1.13 µM; that for `COc1ccc(CNCCN2C(=O)c3cccc4cccc(c34)C2=O)cc1OC`, 4.99 µM. Still for that read-out and setting: with `COc1ccc(OCCNCCN2C(=O)c3cccc4cccc(c34)C2=O)cc1` the figure was 1.04 µM.

As for `O=C1c2cccc3cccc(c23)C(=O)N1CCNCCOc1ccc2c(c1)OCO2`, the Ki is 3 µM.

`NCCCN1C(=O)c2cccc3cccc(c23)C1=O` [NAPHTHALIMIDOPROPYLAMINE] showed a Ki of 29.08 µM. On the same count and under the same terms, with `COc1ccc(OCCCNCCN2C(=O)c3cccc4cccc(c34)C2=O)cc1` the figure was 1.23 µM; with `COc1cccc(OCCCNCCN2C(=O)c3cccc4cccc(c34)C2=O)c1`, 4.39 µM; with `COC(=O)c1ccc(OCCNCCN2C(=O)c3cccc4cccc(c34)C2=O)cc1`, 4.2 µM. On the same count and under the same terms, with `CN(C)CCN1C(=O)c2cccc3cccc(c23)C1=O` the figure was 2.81 µM. On the same count and under the same terms, with `O=C1c2cccc3cccc(c23)C(=O)N1CCO` the figure was 30.87 µM; with `COc1cccc(CNCCN2C(=O)c3cccc4cccc(c34)C2=O)c1`, 6.22 µM; with `COc1cccc(OCCNCCN2C(=O)c3cccc4cccc(c34)C2=O)c1`, 0.93 µM.

For the compound `NCCCCN1C(=O)c2cccc3cccc(c23)C1=O`, the Ki was 61.74 µM. This Ki lies about 66-fold higher than the previous one. On the same count and under the same terms, the result for `COc1ccccc1OCCNCCN1C(=O)c2cccc3cccc(c23)C1=O` reads 1.35 µM; that for `COc1ccc(NCCNCCN2C(=O)c3cccc4cccc(c34)C2=O)c(OC)c1`, 4.63 µM. On the same count and under the same terms, with `COc1ccc(OCCNCCN2C(=O)c3cccc4cccc(c34)C2=O)cc1OC` the figure was 0.69 µM. On the same count and under the same terms, the result for `COc1ccc(NCCNCCN2C(=O)c3cccc4cccc(c34)C2=O)cc1` reads 1.08 µM; that for `NCCN1C(=O)c2cccc3cccc(c23)C1=O`, 2.09 µM.

The target of another assay is T1, Beta-N-acetyl-D-hexosaminidase-A/B (Homo sapiens). Kind of assay: Competitive inhibition of human beta-N-acetyl-D-hexosaminidase-A/B using 4-Methylumbelliferyl N-acetyl-beta-D-glucosaminide as substrate at 0.1 mM incubated for 10 mins prior to substrate addition by Dixon plot analysis. It is filed as protein assay.
For `COc1ccc(CNCCN2C(=O)c3cccc4cccc(c34)C2=O)cc1`, the inhibition result was “Active”.

A further assay addresses T3, Beta-hexosaminidase subunit beta (Homo sapiens, UniProt P07686).
T3 sequence (P07686 whole entry): T2 sequence (P07686 whole entry)
As to the kind of experiment: Competitive inhibition of human beta-N-acetyl-D-hexosaminidase-B using 4-Methylumbelliferyl N-acetyl-beta-D-glucosaminide as substrate assessed as release of 4-Methylumbelliferyl fluorophore measured for 7 mins.
On to `O=C1c2cccc3cccc(c23)C(=O)N1CCNCCN1C(=O)c2cccc3cccc(c23)C1=O`, for which the IC50 turned out to be 3.1 µM.

Another assay has as its target T4, Beta-hexosaminidase subunit alpha (Homo sapiens, UniProt P06865).
T4 sequence (P06865 whole entry): T2 sequence (P06865 whole entry)
Kind of assay: Competitive inhibition of human beta-N-acetyl-D-hexosaminidase-A using 4-Methylumbelliferyl N-acetyl-beta-D-glucosaminide as substrate assessed as release of 4-Methylumbelliferyl fluorophore measured for 7 mins.
In the case of `O=C1c2cccc3cccc(c23)C(=O)N1CCNCCN1C(=O)c2cccc3cccc(c23)C1=O`, the IC50 turned out to be 6 µM.

One may read the inhibition as how much of the control response was suppressed. As a reminder, the Ki is a dissociation constant, usually derived from enzyme kinetics or from competition with a known ligand. A lower Ki goes with tighter binding. The IC50 is the midpoint of a concentration-inhibition curve.
